According to ChEMBL document CHEMBL5131375, “Recent Developments in the Use of Kinase Inhibitors for Management of Viral Infections” (J Med Chem, 2022):

Legend:
Enterovirus A71 [1] = assay: Antiviral activity against enterovirus A71 infected in human RD cells assessed as decrease in viral mRNA level at 2 uM; format: functional; design: scale not given: the % may be the effect or the level left
Enterovirus A71 [2] = assay: Antiviral activity against enterovirus A71 infected in human HeLa cells assessed as decrease in viral mRNA level at 2 uM; format: functional; design: scale not given: the % may be the effect or the level left
Enterovirus A71 [3] = assay: Antiviral activity against enterovirus A71 infected in human RD cells assessed as decrease in viral titer by inhibition of Pim1; format: functional; design: scale not given: the % may be the effect or the level left
Enterovirus A71 [4] = assay: Antiviral activity against enterovirus A71 infected in human HeLa cells assessed as decrease in viral titer by inhibition of Pim1; format: functional; design: scale not given: the % may be the effect or the level left
Enterovirus A71 [5] = assay: Antiviral activity against enterovirus A71 assessed as reduction in viral mRNA level at 2 uM relative to control; format: functional; design: scale not given: the % may be the effect or the level left
in vitro [6] = conditions: human
in vitro [7] = conditions: human, hek-293t
Human alphaherpesvirus 1 [8] = assay: Antiviral activity against HSV-1 KOS strain infected in 1 hr pretreated mouse L929 cells assessed as cell viability by cell titre-glo luminescent kit method; format: functional, organism-based; conditions: Human alphaherpesvirus 1, KOS
Human alphaherpesvirus 1 [9] = assay: Antiviral activity against HSV-1-induced necrosis; format: functional, organism-based
[10] = Cytotoxicity against 24ST1NLESG cells (unknown origin); format: toxicity, cell-based
dengue virus type 2 [11] = assay: Antiviral activity against DENV2 infected in hamster BHK-21 cells; format: functional
dengue virus type 2 [12] = assay: microbe, parasite or virus in culture; format: functional, organism-based
[13] = Cytotoxicity against microglia (unknown origin) cells; format: toxicity, cell-based
Human alphaherpesvirus 1 [14] = assay: microbe, parasite or virus in culture; format: functional, organism-based
[15] = target: Cyclin-dependent kinase 9 (Homo sapiens, UniProt P50750); assay: Inhibition of CDK9 (unknown origin) incubated for 2 hrs by measuring remaining ATP
Human alphaherpesvirus 1 [16] = assay: Antiviral activity against ACV-resistant HSV-1 in African green monkey Vero cells measured after 2 days; format: functional, organism-based; conditions: Human alphaherpesvirus 1, Vero, 48 h
Hepatitis B virus [17] = assay: Antiviral activity against HBV infected in human HepG2-hNTCP cells; format: functional, organism-based
Hepatitis B virus [18] = assay: microbe, parasite or virus in culture; format: functional, organism-based; conditions: Hepatitis B virus
[19] = Cytotoxicity against human HepG2 cells; format: toxicity, cell-based
Human alphaherpesvirus 1 [20] = assay: In vivo antiviral activity against HSV-1 infected in organism (unknown origin) assessed as suppression of skin lesions at 10% ointment treatment; format: functional
[21] = Cytotoxicity against human PC-3 cells; format: toxicity, cell-based
Zaire ebolavirus = assay: microbe, parasite or virus in culture; format: functional, organism-based; conditions: dose 5 µM
[22] = Cytotoxicity against human MCF7 cells; format: toxicity, cell-based
Aurora kinase B = Aurora kinase B (Homo sapiens, UniProt Q96GD4); assay: Inhibition of aurora B kinase (unknown origin)
[23] = Cytotoxicity against human JEG-3 cells; format: toxicity, cell-based
Zika virus [24] = assay: microbe, parasite or virus in culture
Influenza A virus [25] = assay: microbe, parasite or virus in culture; format: functional, organism-based
Influenza A virus [26] = assay: microbe, parasite or virus in culture; format: functional, organism-based; remark: listed apart in the source
[27] = Toxicity in mouse infected with Influenza A virus assessed as lethality at 75 mg/kg, po; format: organism-based; conditions: in vivo
in vitro [28] = conditions: human, bxpc-3
SARS-CoV-2 [29] = assay: microbe, parasite or virus in culture; format: functional, organism-based; conditions: Severe acute respiratory syndrome coronavirus 2
SARS-CoV-2 [30] = assay: Antiviral activity against SARS-Cov-2 infected in 1 hr pretreated African green monkey Vero E6 cells assessed as inhibition of viral replication; format: functional, organism-based; conditions: Severe acute respiratory syndrome coronavirus 2, Vero C1008
SARS-CoV-2 [31] = assay: Antiviral activity against SARS-CoV-2 assessed as inhibition of viral replication; format: functional, organism-based; conditions: Severe acute respiratory syndrome coronavirus 2
Ebolavirus [32] = assay: microbe, parasite or virus in culture; format: functional, organism-based; conditions: Orthoebolavirus, MDM
Marburgvirus [33] = assay: microbe, parasite or virus in culture; format: functional, organism-based; conditions: Orthomarburgvirus, MDM
Ebolavirus [34] = assay: microbe, parasite or virus in culture; format: functional, organism-based; conditions: Orthoebolavirus
Marburgvirus [35] = assay: microbe, parasite or virus in culture; format: functional, organism-based; conditions: Orthomarburgvirus
in vitro [36] = conditions: chlorocebus sabaeus, Vero E6 cells
Zika virus [37] = assay: Antiviral activity against ZIKV-PRVABC59 infected in human Huh-7 cells measured after 24 hrs; format: functional, organism-based; conditions: PRVABC59, Huh-7, 24 h
Zika virus [38] = assay: Antiviral activity against ZIKV-PRVABC59 infected in Neuronal cell line measured after 24 hrs; format: functional, organism-based
Lassa virus = assay: microbe, parasite or virus in culture; format: functional, organism-based; conditions: Mammarenavirus lassaense, A549
Nipah virus [39] = assay: microbe, parasite or virus in culture; format: functional, organism-based, HEK293T; conditions: Henipavirus nipahense, HEK-293T
Ebolavirus [40] = assay: microbe, parasite or virus in culture; format: functional, organism-based; conditions: Orthoebolavirus, Huh-7
Marburgvirus [41] = assay: microbe, parasite or virus in culture; format: functional, organism-based; conditions: Orthomarburgvirus, Huh-7
Ebolavirus [42] = assay: microbe, parasite or virus in culture; format: functional, organism-based; conditions: Orthoebolavirus; remark: listed apart in the source
Marburgvirus [43] = assay: microbe, parasite or virus in culture; format: functional, organism-based; conditions: Orthomarburgvirus; remark: listed apart in the source
Nipah virus [44] = assay: microbe, parasite or virus in culture; format: functional, organism-based; conditions: Henipavirus nipahense
in vitro [45] = conditions: human, Huh-7 cells
Zika virus [46] = assay: Antiviral activity against ZIKV at 1 uM relative to control; format: functional
in vitro [47] = conditions: human, sertoli cell
[48] = system: Human immunodeficiency virus; assay: Antiviral activity against HIV p24 assessed as extracellular antigen accumulation in primary macrophage at 25 uM; format: functional
[49] = system: Mammarenavirus choriomeningitidis; format: functional; conditions: dose 0.5-5 µM

Sequence of Aurora kinase B (Q96GD4 whole entry): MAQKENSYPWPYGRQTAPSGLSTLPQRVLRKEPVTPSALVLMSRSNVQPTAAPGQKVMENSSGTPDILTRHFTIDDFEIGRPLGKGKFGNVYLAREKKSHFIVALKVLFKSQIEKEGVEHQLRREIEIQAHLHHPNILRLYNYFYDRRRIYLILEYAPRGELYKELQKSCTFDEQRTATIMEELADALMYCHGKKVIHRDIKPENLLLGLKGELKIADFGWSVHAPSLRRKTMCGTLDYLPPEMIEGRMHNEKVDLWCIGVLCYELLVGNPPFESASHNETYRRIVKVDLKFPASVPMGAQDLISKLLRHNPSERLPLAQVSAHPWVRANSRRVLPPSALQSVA
Sequence of Cyclin-dependent kinase 9 (P50750 whole entry): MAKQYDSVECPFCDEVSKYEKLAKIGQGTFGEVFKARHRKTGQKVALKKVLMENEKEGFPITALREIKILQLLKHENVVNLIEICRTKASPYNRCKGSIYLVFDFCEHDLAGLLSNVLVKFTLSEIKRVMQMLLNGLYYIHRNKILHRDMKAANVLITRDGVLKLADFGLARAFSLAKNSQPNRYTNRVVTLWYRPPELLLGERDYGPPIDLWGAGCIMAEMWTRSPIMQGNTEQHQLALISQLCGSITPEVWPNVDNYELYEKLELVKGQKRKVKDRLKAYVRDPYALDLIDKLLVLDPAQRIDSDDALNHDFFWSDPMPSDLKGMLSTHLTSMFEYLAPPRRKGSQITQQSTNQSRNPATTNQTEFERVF

With `CN1CCCN(C(=O)c2cccc(-c3ccc(/C=C4/C(=O)Nc5ccc(Cl)cc54)o3)c2)CC1` as the compound, how does the Activity (Enterovirus A71 [1]) read?
Its Activity is 70%.

What about the Activity (Enterovirus A71 [2]) of the same compound?
Its Activity is 70%.

And the Activity (Enterovirus A71 [3])?
Its Activity is 50%.

And the Activity (Enterovirus A71 [4])?
Its Activity is 50%.

What about the Activity (Enterovirus A71 [5]) of the same compound?
The Activity was 70%.

And the CC50 (in vitro [6]; hela)?
Its CC50 is > 8 µM.

What about the CC50 (in vitro [7]) of the same compound?
The CC50 was > 8 µM.

With `O=C1NCCc2[nH]c(-c3ccncc3)cc21` as the compound, how does the IC50 (Human alphaherpesvirus 1 [8]) read?
Its IC50 is 1.86 µM.

What about the IC50 (Human alphaherpesvirus 1 [9]) of the same compound?
The IC50 was 1.86 µM.

And the CC50 [10]?
The CC50 was 1 µM.

With `NC(=O)c1cccc(-c2cc(Nc3ccc(OC(F)(F)F)cc3)ncn2)c1` as the compound, how does the IC90 (dengue virus type 2 [11]) read?
The IC90 was 15 µM.

And the IC50 (dengue virus type 2 [12])?
Its IC50 is 15 µM.

What about the CC50 [13] of the same compound?
Its CC50 is 20 µM.

For `Fc1ccc(N2CCCCC2)c(NC(=S)c2ccncc2)c1`, which EC50 (Human alphaherpesvirus 1 [14]) is on record?
The EC50 was 0.69 µM.

What about the IC50 [15] of the same compound?
Its IC50 is 5.8 µM.

What about the IC50 (Human alphaherpesvirus 1 [16]) of the same compound?
Its IC50 is 0.69 µM.

And the IC50 (Hepatitis B virus [17])?
The IC50 was 0.33 µM.

And the EC50 (Hepatitis B virus [18])?
Its EC50 is 0.33 µM.

What about the CC50 [19] of the same compound?
The CC50 was > 50 µM.

What about the Activity (Human alphaherpesvirus 1 [20]) of the same compound?
Its Activity is 100%.

What about the CC50 (in vitro [6]; HeLa cells) of the same compound?
The CC50 was > 10 µM.

For `Ic1cccc(/C=N/Nc2nc(N3CCOCC3)nc(N(c3ccccc3)c3ccccc3)n2)c1`, which CC50 [21] is on record?
The CC50 was > 10 µM.

And the inhibition at 5 µM (Zaire ebolavirus)?
The inhibition at 5 µM was 100%.

What about the CC50 [22] of the same compound?
The CC50 was > 10 µM.

What does the source list for `c1cncc(CN2CCC(n3ncc4c(N5CCOCC5)nc(-c5ccc6[nH]ccc6c5)nc43)CC2)c1`?
IC50 (Aurora kinase B): 0.25 µM; CC50 [23]: > 10 µM; EC50 (Zika virus [24]): 2.28 µM; IC50 (Zika virus [24]): 2.3 µM

With `O=C(NCc1ccncc1)C12CC3CC(C1)CC(c1ccc(Cl)cc1)(C3)C2` [ABC-294640] as the compound, how does the EC50 (Influenza A virus [25]) read?
The EC50 was 1.78 µM.

And the EC50 (Influenza A virus [26])?
The EC50 was 1.78 µM.

What about the Activity [27] of the same compound?
Its Activity is “Non-Toxic”.

What about the CC50 (in vitro [28]) of the same compound?
The CC50 was 28.5 µM.

What does the source list for `Cc1cccc(/C=N/Nc2cc(N3CCOCC3)nc(OCCc3ccccn3)n2)c1` [APILIMOD]?
EC50 (SARS-CoV-2 [29]): 0.023 µM; EC50 (SARS-CoV-2 [30]): 0.023 µM; EC50 (SARS-CoV-2 [31]): 0.023 µM; IC50 (Ebolavirus [32]): 0.01 µM; IC50 (Marburgvirus [33]): 0.01 µM; EC50 (Ebolavirus [34]): 0.01 µM; EC50 (Marburgvirus [35]): 0.01 µM; CC50 (in vitro [36]): > 1 µM

With `NCC(=O)Nc1ccc(-n2nc(C(F)(F)F)cc2-c2ccc3c(ccc4ccccc43)c2)cc1` [AR-12] as the compound, how does the IC50 (Zika virus [37]) read?
The IC50 was 2 µM.

What about the IC50 (Zika virus [38]) of the same compound?
Its IC50 is 2 µM.

What about the EC50 (Lassa virus) of the same compound?
The EC50 was 0.5 µM.

What about the EC50 (Nipah virus [39]) of the same compound?
The EC50 was 0.3 µM.

What about the EC50 (Ebolavirus [40]) of the same compound?
Its EC50 is 0.3 µM.

And the EC50 (Marburgvirus [41])?
The EC50 was 0.3 µM.

And the EC50 (Ebolavirus [42])?
Its EC50 is 0.3 µM.

What about the EC50 (Marburgvirus [43]) of the same compound?
Its EC50 is 0.3 µM.

What about the EC50 (Nipah virus [44]) of the same compound?
The EC50 was 0.3 µM.

What about the CC50 (in vitro [45]) of the same compound?
The CC50 was > 10 µM.

And the IC50 (Zika virus [24])?
Its IC50 is < 2 µM.

Which results are given for `Nc1nc(Nc2ccc3c(c2)CC[C@@H](N2CCCC2)CC3)nn1-c1cc2c(nn1)-c1ccccc1CCC2` [BEMCENTINIB]?
Activity (Zika virus [46]): 75%; CC50 (in vitro [47]): > 10 µM

Which results are given for `Cn1c(=O)n(-c2ccc(C(C)(C)C#N)cc2)c2c3cc(-c4cnc5ccccc5c4)ccc3ncc21` [DACTOLISIB]?
Activity [48]: 83%; log(activity) [49]: 2; CC50 (in vitro [7]): > 5 µM
